# Measured values: patent US12509460B2 (Skyhawk Therapeutics, Inc., priority 2019, dated 2025)
# Where two headings read alike, the source gives them in different places.
# Experiments:
# [1] = system: mHTT protein in GM04724 (CAG 70/20) Huntington's disease patient lymphoblast cells; assay: mHTT protein assay, 2B7-MW1 assay via Mesoscale Discovery (MSD); assay type: cell-based, human
# Experimental: Example A10: mHTT Protein Assay
# Compounds are tested on GM04724 (CAG 70/20) Huntington's disease patient lymphoblast cells at doses ranging from 10 μM to 0.6 nM. 4,500 cells/well are seeded in 384 well plates. One plate replica is carried out for parallel viability testing by CellTiter Glo (CTG). Compounds are incubated for 48 hours. mHTT protein levels are assessed by the 2B7-MW1 assay via Mesoscale Discovery (MSD) as previously reported (Macdonald et al., 2014). The antibody pair is comprised of previously characterized monoclonals (2B7 and MW1) interrogating two regions for HTT conformation and biological properties: the N, 17 domain and the polyQ domain (Baldo et al., 2012; Ko et., 2001). 2B7-MW1 is […] specific levels of HTT at the time of treatment. 2B7-MW1 is dependent on polyQ expansion (e.g., the higher the expansion the higher the signal) and on mHTT size (e.g., a similar polyQ will give higher signal with smaller HTT size). The viability readout is carried out by CTG according to the manufacturer's instructions.
# [2] = system: SMN FL and SMN Δ7 in spinal muscular atrophy (SMA) patient fibroblasts (GM03813, Coriell); assay: Quantitative splicing assay (SMN), qPCR; assay type: cell-based, human; conditions: SMA patient fibroblasts GM03813, 24 h, qPCR, read-out: SMN2 Splicing FL EC50
# Experimental: Spinal muscular atrophy (SMA) patient fibroblasts (GM03813, Coriell) are plated in 96-well plates at 50,000 cells/well. […] Treated cells are lysed and cDNA synthesized using the Fast Advanced Cells-to-Ct kit (Thermofisher A35378) according to the manufacturer's instructions. 2 μL of each cDNA are used in qPCR reactions. […] Reactions are run in a Quant Studio 6 qPCR instrument with default settings.
# [3] = system: SMN protein in spinal muscular atrophy (SMA) patient fibroblasts (GM03813, Coriell); assay: SMN protein assay, Mesoscale Discovery (MSD); assay type: cell-based, human; conditions: for EC50: read-out: SMN2 protein EC50
# Experimental: Example A12: SMN Protein Assay
# Compounds are tested on spinal muscular atrophy (SMA) patient fibroblasts (GM03813, Coriell) at doses ranging from 2.5 μM to 0.6 nM. 7000 cells/well are seeded in 96-well plates. Compounds are incubated for 48 hours and the cells were lysed with 100 μL of lysis buffer. 20 μL of lysate is used for SMN protein measurement by Mesoscale Discovery (MSD) assay developed by PharmOptima (Michigan). A standard curve prepared with SMN protein ranging from 1 μg/ml to 19.5 pg/ml is used in each MSD plate to calculate the absolute SMN protein amount in each sample.
# MDR1 (P-gp) [4] = assay: Blood-brain-barrier (BBB) penetration potential via MDCK-MDR1 permeability assay; conditions: dog; for Papp A→B at 120 min, 5 μM: MDCK-MDR1, pH 7.4, MDCK-MDR1: Papp A-B; for Papp B→A at 120 min, 5 μM: MDCK-MDR1, pH 7.4, MDCK-MDR1: Papp B-A
# [5] = system: MDR1-MDCK cell monolayers; assay: as above
# [6] = system: MDR1-MDCK cell monolayers; conditions: dog, MDCK-MDR1, 120 min, 5 μM, pH 7.4
# MDR1 (P-gp) [7] = assay: in vitro; conditions: dog, MDCK-MDR1, pH 7.4
# MDR1 = assay: Blood-brain-barrier (BBB) penetration potential via MDCK-MDR1 permeability assay; conditions: dog, MDCK-MDR1, pH 7.4, MDCK-MDR1: Efflux
# [8] = GM04724 Huntington's disease patient lymphoblasts
# [9] = SMA patient fibroblasts GM03813, 48 hours, MSD
# [10] = GM04724 (CAG 70/20) Huntington's disease patient lymphoblasts
# [11] = SMA patient fibroblasts (GM03813), 48 hours
Structure (SMILES),"EC50 [1, 8] [nM]","EC50 [3, 9] [nM]","Papp A→B at 120 min, 5 μM (MDR1 (P-gp) [4]; A-B direction) [×10⁻⁶ cm/s]","Papp B→A at 120 min, 5 μM (MDR1 (P-gp) [4]; B-A direction) [×10⁻⁶ cm/s]",MDCK-MDR1: % Recov A-B ([5]; A-B direction) [%],MDCK-MDR1: % Recov B-A ([5]; B-A direction) [%],"efflux ratio at 120 min, 5 μM (MDR1; efflux ratio)",further results
"CN(c1ccc(-c2cc3ncccc3cc2O)nn1)[C@@H]1C[C@H]2CC(F)(F)[C@@H](C1)N2 [Compound 46A, 7-(6-(((1S,3R,5R)-6,6-difluoro-8-azabicyclo[3.2.1]octan-3-yl)(methyl)amino)pyridazin-3-yl)quinolin-6-ol]",16 to 50,16 to 50,31.7,29.2,68,89,–,"EC50 ([2]; Homo sapiens, Fibroblast, 24 h): 501 to 10000 nM; efflux ratio at 120 min, 5 μM (MDR1 (P-gp) [4]; MDCK-MDR1, pH 7.4, MDCK-MDR1: Efflux, efflux ratio): 1"
"CN(c1ccc(-c2cc3cnccc3cc2O)nn1)[C@H]1C[C@@H]2CC(F)(F)[C@H](C1)N2 [Compound 126B, 7-(6-(((1R,3S,5S)-6,6-difluoro-8-azabicyclo[3.2.1]octan-3-yl)(methyl)amino)pyridazin-3-yl)isoquinolin-6-ol]",–,–,–,–,–,–,–,"mHTT protein EC50 [1, 10]: E (501 ≤ E ≤ 10.000); EC50 [3, 11]: 101 to 500 nM; MDCK-MDR1: % Recov A-B [6]: 75%; MDCK-MDR1: % Recov B-A [6]: 88%; Papp A→B at 120 min, 5 μM (MDR1 (P-gp) [7]): 12.6 ×10⁻⁶ cm/s; Papp B→A at 120 min, 5 μM (MDR1 (P-gp) [7]): 39.4 ×10⁻⁶ cm/s; efflux ratio at 120 min, 5 μM (MDR1 (P-gp) [7]): 3"
"Cc1cnc(-c2ccc(-c3ccc(N(C)[C@@H]4C[C@H]5CC[C@H](N5)[C@@H]4F)nn3)c(O)c2)o1 [Compound 48A, 2-(6-(((1S,2S,3R,5R)-2-fluoro-8-azabicyclo[3.2.1]octan-3-yl)(methyl)amino)pyridazin-3-yl)-5-(5-methyloxazol-2-yl)phenol]",51 to 100,0.01 to 15,3.71,29,58,76,8,–
"CN(c1ccc(-c2ccc(-n3cnc(Cl)c3)cc2O)nn1)[C@H]1C[C@@H]2CC(F)(F)[C@H](C1)N2 [Compound 37B, 5-(4-chloro-1H-imidazol-1-yl)-2-(6-(((1R,3S,5S)-6,6-difluoro-8-azabicyclo[3.2.1]octan-3-yl)(methyl)amino)pyridazin-3-yl)phenol]",51 to 100,101 to 500,19,32.7,54,70,2,–
"CN(c1ccc(-c2ccc(-c3cnc(C#N)cn3)cc2O)nn1)[C@@H]1C[C@H]2CCC[C@H](N2)[C@@H]1F [Compound 28A, 5-(4-(6-(((1S,2S,3R,5R)-2-fluoro-9-azabicyclo[3.3.1]nonan-3-yl)(methyl)amino)pyridazin-3-yl)-3-hydroxyphenyl) pyrazine-2-carbonitrile]",16 to 50,–,1.41,28.4,40,61,20,"SMN2 protein EC50 [3, 9]: E (501 ≤ E ≤ 10.000)"
"Cc1nc2cc(-c3ccc(N(C)[C@@H]4C[C@H]5CC[C@H](N5)[C@@H]4F)nn3)c(O)cc2c(=O)n1CC(F)(F)F [Compound 113A, 7-(6-(((1S,2S,3R,5R)-2-fluoro-8-azabicyclo[3.2.1]octan-3-yl)(methyl)amino)pyridazin-3-yl)-6-hydroxy-2-methyl-3-(2,2,2-trifluoroethyl)quinazolin-4(3H)-one]",–,–,–,–,–,–,–,"mHTT protein EC50 [1, 10]: E (501 ≤ E ≤ 10.000); EC50 [3, 11]: 0.01 to 15 nM; Papp A→B at 120 min, 5 μM (MDR1 (P-gp) [4]; A-B): 0.2 ×10⁻⁶ cm/s; Papp B→A at 120 min, 5 μM (MDR1 (P-gp) [4]; B-A): 66.9 ×10⁻⁶ cm/s; MDCK-MDR1: % Recov A-B ([5]; A-B): 96%; MDCK-MDR1: % Recov B-A ([5]; B-A): 99%; efflux ratio at 120 min, 5 μM (MDR1): 333"
"CN(c1ccc(-c2cc3c(=O)n(C)ccc3s2)nn1)[C@@H]1C[C@H]2CC[C@H](N2)[C@@H]1F (single isomer, unassigned) [Compound 68A]",101 to 500,51 to 100,0.41,45.6,92,78,111,–
CN(c1ccc(-c2ccc(-c3cnn(C(F)F)c3)cc2O)nn1)[C@H]1C[C@@H]2CCC[C@@H](N2)[C@H]1F [Compound 21B],16 to 50,0.01 to 15,1.73,30.4,39,68,18,–
"CN(c1ccc(-c2cc3cnccc3cc2O)nn1)[C@@H]1C[C@H]2CC[C@H](N2)[C@@H]1F (single isomer, unassigned) [Compound 7B]",51 to 100,0.01 to 15,–,–,69,89,–,"EC50 [2]: 51 to 100 nM; MDCK-MDR1: Papp A-B ([5]; A-B direction): 4.27 10^−6, cm/s; MDCK-MDR1: Papp B-A ([5]; B-A direction): 36.1 10^−6, cm/s; MDCK-MDR1: Efflux ([5]; efflux ratio): 8"
"COc1cn(-c2ccc(-c3ccc(N(C)[C@H]4C[C@@H]5CC(F)(F)[C@H](C4)N5)nn3)c(O)c2)cn1 [Compound 19B, 2-(6-(((1R,3S,5S)-6,6-difluoro-8-azabicyclo[3.2.1]octan-3-yl)(methyl)amino)pyridazin-3-yl)-5-(4-methoxy-1H-imidazol-1-yl)phenol]",–,51 to 100,12.2,63.3,91,88,5,"mHTT protein EC50 [1, 8]: E (501 ≤ E ≤ 10.000)"
"CN(c1ccc(-c2ccc(-c3cnn(C)c3)cc2O)nn1)[C@@H]1C[C@H]2CCC[C@H](N2)[C@@H]1F [Compound 15A, 2-(6-(((1S,2S,3R,5R)-2-fluoro-9-azabicyclo[3.3.1]nonan-3-yl)(methyl)amino)pyridazin-3-yl)-5-(1-methyl-1H-pyrazol-4-yl)phenol]",0.01 to 15,0.01 to 15,2.76,34.4,61,70,12,–
